Results reported in US12539292B2, “BRM targeting compounds and associated methods of use” (Arvinas Operations, Inc., priority 2018, dated 2026).

Target: T1, BRM (Homo sapiens, UniProt P51531)
T1 construct: In-Cell Western Screen of BRM Degradation in SW1573 Cells; endogenous in cells; host or cells: SW1573
Assay: In-cell Western screen of BRM degradation in SW1573 cells (Dmax and DC50)
Type: cell-based
Conditions: BRM degradation, SW1573 cells; for DC50: read-out: DC50; for Dmax: tested at the top concentration of between 0.3 and 10 μM, read-out: Dmax (%) (% degraded)
In short: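 SW1573 cells were treated overnight (18-20 hours) with compound at 0.1% final DMSO. They were then PFA-fixed, permeabilised with Triton X-100 and immunostained with 800 nm/680 nm secondary antibodies. BRM signal was quantified by LI-COR in-cell Western imaging to derive Dmax and DC50.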

T1 sequence (P51531 whole entry): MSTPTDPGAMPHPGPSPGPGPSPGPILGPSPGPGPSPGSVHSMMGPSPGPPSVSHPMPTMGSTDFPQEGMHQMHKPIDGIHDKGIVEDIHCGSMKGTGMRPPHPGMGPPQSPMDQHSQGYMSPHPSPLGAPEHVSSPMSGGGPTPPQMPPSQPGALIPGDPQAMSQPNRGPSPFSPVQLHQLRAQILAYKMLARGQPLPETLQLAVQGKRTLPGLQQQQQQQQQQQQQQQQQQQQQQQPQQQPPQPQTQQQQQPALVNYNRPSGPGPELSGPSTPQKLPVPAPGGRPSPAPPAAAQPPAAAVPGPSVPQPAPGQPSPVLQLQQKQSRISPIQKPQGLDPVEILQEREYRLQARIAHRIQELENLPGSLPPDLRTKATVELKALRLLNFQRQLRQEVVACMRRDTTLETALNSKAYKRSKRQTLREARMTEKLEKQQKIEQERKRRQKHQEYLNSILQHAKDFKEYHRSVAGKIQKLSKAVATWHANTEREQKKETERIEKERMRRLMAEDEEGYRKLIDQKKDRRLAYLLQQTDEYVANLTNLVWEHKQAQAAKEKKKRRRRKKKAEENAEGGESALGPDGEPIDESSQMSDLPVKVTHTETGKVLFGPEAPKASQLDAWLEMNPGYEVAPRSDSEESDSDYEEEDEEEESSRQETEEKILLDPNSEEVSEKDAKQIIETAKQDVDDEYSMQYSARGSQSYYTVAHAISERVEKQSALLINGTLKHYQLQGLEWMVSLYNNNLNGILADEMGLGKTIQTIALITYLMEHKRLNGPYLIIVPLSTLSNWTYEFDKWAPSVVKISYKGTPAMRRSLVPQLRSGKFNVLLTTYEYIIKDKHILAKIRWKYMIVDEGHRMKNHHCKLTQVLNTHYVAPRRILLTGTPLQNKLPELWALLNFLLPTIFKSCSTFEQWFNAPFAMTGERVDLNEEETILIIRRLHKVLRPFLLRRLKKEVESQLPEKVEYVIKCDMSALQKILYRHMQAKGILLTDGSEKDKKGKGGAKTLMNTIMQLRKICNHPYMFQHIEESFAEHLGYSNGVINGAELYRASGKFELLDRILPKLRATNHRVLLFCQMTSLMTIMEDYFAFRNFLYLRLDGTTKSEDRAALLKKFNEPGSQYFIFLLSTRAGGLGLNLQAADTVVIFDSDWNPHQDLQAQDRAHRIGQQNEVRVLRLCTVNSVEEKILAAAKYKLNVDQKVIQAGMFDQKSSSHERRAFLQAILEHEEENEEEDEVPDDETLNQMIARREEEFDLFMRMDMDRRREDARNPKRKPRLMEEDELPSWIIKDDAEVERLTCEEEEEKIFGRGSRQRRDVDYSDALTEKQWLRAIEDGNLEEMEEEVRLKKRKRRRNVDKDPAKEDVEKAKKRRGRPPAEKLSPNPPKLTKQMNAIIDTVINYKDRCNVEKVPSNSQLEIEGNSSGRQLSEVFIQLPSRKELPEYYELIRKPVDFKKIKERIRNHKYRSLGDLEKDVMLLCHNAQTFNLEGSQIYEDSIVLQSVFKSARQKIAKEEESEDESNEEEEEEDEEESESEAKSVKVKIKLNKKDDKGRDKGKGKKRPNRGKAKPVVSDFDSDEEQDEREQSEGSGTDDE

Row | SMILES | DC50 [nM] | Dmax [%]
1 | COc1nc(-c2scnc2C)ccc1[C@H](C)NC(=O)[C@@H]1C[C@@H](O)CN1C(=O)[C@@H](c1cc(OCCN2CCC(O[C@H]3C[C@H](Oc4cc(N5C6CCC5CN(c5cc(-c7ccccc7O)nnc5N)C6)ccn4)C3)CC2)no1)C(C)C [compound 279, (2S,4R)-1-((2R)-2-(3-(2-(4-((1r,3R)-3-((4-(3-(3-amino-6-(2-hydroxyphenyl)pyridazin-4-yl)-3,8-diazabicyclo[3.2.1]octan-8-yl)pyridin-2-yl)oxy)cyclobutoxy)piperidin-1-yl)ethoxy)isoxazol-5-yl)-3-methylbutanoyl)-4-hydroxy-N-((S)-1-(2-methoxy-6-(4-methylthiazol-5-yl)pyridin-3-yl)ethyl)pyrrolidine-2-carboxamide] | < 2.5 | > 75
2 | Cc1ncsc1-c1ccc([C@H](CN(C)C)NC(=O)[C@@H]2C[C@@H](O)CN2C(=O)[C@H](c2cc(OCCN3CCN(CCOc4cc(N5C6CCC5CN(c5cc(-c7ccccc7O)nnc5N)C6)ccn4)CC3)no2)C(C)C)cc1 [compound 280, (2S,4R)-1-((2S)-2-(3-(2-(4-(2-((4-(3-(3-amino-6-(2-hydroxyphenyl)pyridazin-4-yl)-3,8-diazabicyclo[3.2.1]octan-8-yl)pyridin-2-yl)oxy)ethyl)piperazin-1-yl)ethoxy)isoxazol-5-yl)-3-methylbutanoyl)-N-((R)-2-(dimethylamino)-1-(4-(4-methylthiazol-5-yl)phenyl)ethyl)-4-hydroxypyrrolidine-2-carboxamide] | > 30 | 
3 | Cc1ncsc1-c1ccc([C@H](CN(C)C)NC(=O)[C@@H]2C[C@@H](O)CN2C(=O)[C@@H](c2cc(OCCN3CCN(CCOc4cc(N5C6CCC5CN(c5cc(-c7ccccc7O)nnc5N)C6)ccn4)CC3)no2)C(C)C)cc1 [compound 281, (2S,4R)-1-((2R)-2-(3-(2-(4-(2-((4-(3-(3-amino-6-(2-hydroxyphenyl)pyridazin-4-yl)-3,8-diazabicyclo[3.2.1]octan-8-yl)pyridin-2-yl)oxy)ethyl)piperazin-1-yl)ethoxy)isoxazol-5-yl)-3-methylbutanoyl)-N-((R)-2-(dimethylamino)-1-(4-(4-methylthiazol-5-yl)phenyl)ethyl)-4-hydroxypyrrolidine-2-carboxamide] | < 2.5 | > 75
4 | CC(C)[C@@H](C(=O)N1C[C@H](O)C[C@H]1C(=O)N[C@@H](C)c1ccc(-c2c(Cl)cnn2C)cc1)c1cc(OCCN2CCN(CCOc3cc(N4C5CCC4CN(c4cc(-c6ccccc6O)nnc4N)C5)ccn3)CC2)no1 [compound 283, (2S,4R)-1-((2R)-2-(3-(2-(4-(2-((4-(3-(3-amino-6-(2-hydroxyphenyl)pyridazin-4-yl)-3,8-diazabicyclo[3.2.1]octan-8-yl)pyridin-2-yl)oxy)ethyl)piperazin-1-yl)ethoxy)isoxazol-5-yl)-3-methylbutanoyl)-N-((S)-1-(4-(4-chloro-1-methyl-1H-pyrazol-5-yl)phenyl)ethyl)-4-hydroxypyrrolidine-2-carboxamide] | < 2.5 | > 75
5 | CC(C)[C@H](C(=O)N1C[C@H](O)C[C@H]1C(=O)N[C@@H](C)c1ccc(-n2ccnc2CO)cc1)c1cc(OCC#Cc2ccc(O[C@H]3C[C@H](Oc4cc(N5C6CCC5CN(c5cc(-c7ccccc7O)nnc5N)C6)ccn4)C3)cn2)no1 [compound 284, (2S,4R)-1-((2S)-2-(3-((3-(5-((1r,3S)-3-((4-(3-(3-amino-6-(2-hydroxyphenyl)pyridazin-4-yl)-3,8-diazabicyclo[3.2.1]octan-8-yl)pyridin-2-yl)oxy)cyclobutoxy)pyridin-2-yl)prop-2-yn-1-yl)oxy)isoxazol-5-yl)-3-methylbutanoyl)-4-hydroxy-N-((S)-1-(4-(2-(hydroxymethyl)-1H-imidazol-1-yl)phenyl)ethyl)pyrrolidine-2-carboxamide] | 10 to 30 | > 75
6 | CC(C)[C@@H](C(=O)N1C[C@H](O)C[C@H]1C(=O)N[C@@H](C)c1ccc(-n2ccnc2CO)cc1)c1cc(OCC#Cc2ccc(O[C@H]3C[C@H](Oc4cc(N5C6CCC5CN(c5cc(-c7ccccc7O)nnc5N)C6)ccn4)C3)cn2)no1 [compound 285, (2S,4R)-1-((2R)-2-(3-((3-(5-((1r,3R)-3-((4-(3-(3-amino-6-(2-hydroxyphenyl)pyridazin-4-yl)-3,8-diazabicyclo[3.2.1]octan-8-yl)pyridin-2-yl)oxy)cyclobutoxy)pyridin-2-yl)prop-2-yn-1-yl)oxy)isoxazol-5-yl)-3-methylbutanoyl)-4-hydroxy-N-((S)-1-(4-(2-(hydroxymethyl)-1H-imidazol-1-yl)phenyl)ethyl)pyrrolidine-2-carboxamide] | < 2.5 | > 75
7 | Cc1ncsc1-c1ccc([C@H](C)NC(=O)[C@@H]2C[C@@H](O)CN2C(=O)[C@@H](c2cc(OCC(=O)N3CCC(O[C@H]4C[C@H](Oc5cc(N6C7CCC6CN(c6cc(-c8ccccc8O)nnc6N)C7)ccn5)C4)CC3)no2)C(C)C)cn1 [compound 286, (2S,4R)-1-((2R)-2-(3-(2-(4-((1r,3R)-3-((4-(3-(3-amino-6-(2-hydroxyphenyl)pyridazin-4-yl)-3,8-diazabicyclo[3.2.1]octan-8-yl)pyridin-2-yl)oxy)cyclobutoxy)piperidin-1-yl)-2-oxoethoxy)isoxazol-5-yl)-3-methylbutanoyl)-4-hydroxy-N-((S)-1-(6-(4-methylthiazol-5-yl)pyridin-3-yl)ethyl)pyrrolidine-2-carboxamide] | 2.5 to 10 | > 75
8 | Cc1ncsc1-c1ccc([C@H](C)NC(=O)[C@@H]2C[C@@H](O)CN2C(=O)[C@H](c2cc(OCCC3CCN(C[C@H]4C[C@H](Oc5cc(N6C7CCC6CN(c6cc(-c8ccccc8O)nnc6N)C7)ccn5)C4)CC3)no2)C(C)C)cn1 [compound 287, (2S,4R)-1-((2S)-2-(3-(2-(1-(((1r,3S)-3-((4-(3-(3-amino-6-(2-hydroxyphenyl)pyridazin-4-yl)-3,8-diazabicyclo[3.2.1]octan-8-yl)pyridin-2-yl)oxy)cyclobutyl)methyl)piperidin-4-yl)ethoxy)isoxazol-5-yl)-3-methylbutanoyl)-4-hydroxy-N-((S)-1-(6-(4-methylthiazol-5-yl)pyridin-3-yl)ethyl)pyrrolidine-2-carboxamide] | > 30 | 
9 | Cc1ncsc1-c1ccc([C@H](C)NC(=O)[C@@H]2C[C@@H](O)CN2C(=O)[C@@H](c2cc(OCCC3CCN(C[C@H]4C[C@H](Oc5cc(N6C7CCC6CN(c6cc(-c8ccccc8O)nnc6N)C7)ccn5)C4)CC3)no2)C(C)C)cn1 [compound 288, (2S,4R)-1-((2R)-2-(3-(2-(1-(((1r,3R)-3-((4-(3-(3-amino-6-(2-hydroxyphenyl)pyridazin-4-yl)-3,8-diazabicyclo[3.2.1]octan-8-yl)pyridin-2-yl)oxy)cyclobutyl)methyl)piperidin-4-yl)ethoxy)isoxazol-5-yl)-3-methylbutanoyl)-4-hydroxy-N-((S)-1-(6-(4-methylthiazol-5-yl)pyridin-3-yl)ethyl)pyrrolidine-2-carboxamide] | < 2.5 | > 75
10 | COc1cc(C(C(=O)N2C[C@H](O)C[C@H]2C(=O)N[C@@H](C)c2ccc(-c3scnc3C)cc2)C(C)CC(=O)N(C)CCOc2cc(N3C4CCC3CN(c3cc(-c5ccccc5O)nnc3N)C4)ccn2)on1 (stereo partly drawn) [compound 289, (2S,4R)-1-(5-((2-((4-(3-(3-amino-6-(2-hydroxyphenyl)pyridazin-4-yl)-3,8-diazabicyclo[3.2.1]octan-8-yl)pyridin-2-yl)oxy)ethyl)(methyl)amino)-2-(3-methoxyisoxazol-5-yl)-3-methyl-5-oxopentanoyl)-4-hydroxy-N-((S)-1-(4-(4-methylthiazol-5-yl)phenyl)ethyl)pyrrolidine-2-carboxamide] | > 30 | 
11 | Cc1ncsc1-c1ccc([C@H](CN)NC(=O)[C@@H]2C[C@@H](O)CN2C(=O)[C@H](c2cc(OCCN3CCN(CCOc4cc(N5C6CCC5CN(c5cc(-c7ccccc7O)nnc5N)C6)ccn4)CC3)no2)C(C)C)cc1 [compound 290, (2S,4R)-N-((R)-2-amino-1-(4-(4-methylthiazol-5-yl)phenyl)ethyl)-1-((2S)-2-(3-(2-(4-(2-((4-(3-(3-amino-6-(2-hydroxyphenyl)pyridazin-4-yl)-3,8-diazabicyclo[3.2.1]octan-8-yl)pyridin-2-yl)oxy)ethyl)piperazin-1-yl)ethoxy)isoxazol-5-yl)-3-methylbutanoyl)-4-hydroxypyrrolidine-2-carboxamide] | > 30 | 
12 | Cc1ncsc1-c1ccc([C@H](COCC(C)C)NC(=O)[C@@H]2C[C@@H](O)CN2C(=O)[C@H](c2cc(OCCN3CCN(CCOc4cc(N5C6CCC5CN(c5cc(-c7ccccc7O)nnc5N)C6)ccn4)CC3)no2)C(C)C)cc1 [compound 291, (2S,4R)-1-((2S)-2-(3-(2-(4-(2-((4-(3-(3-amino-6-(2-hydroxyphenyl)pyridazin-4-yl)-3,8-diazabicyclo[3.2.1]octan-8-yl)pyridin-2-yl)oxy)ethyl)piperazin-1-yl)ethoxy)isoxazol-5-yl)-3-methylbutanoyl)-4-hydroxy-N-((R)-2-isobutoxy-1-(4-(4-methylthiazol-5-yl)phenyl)ethyl)pyrrolidine-2-carboxamide] | > 30 | 
13 | CC(C)[C@H](C(=O)N1C[C@H](O)C[C@H]1C(=O)N[C@@H](C)c1ccc(-n2ccnn2)cc1)c1cc(OCCN2CCN(CCOc3cc(N4C5CCC4CN(c4cc(-c6ccccc6O)nnc4N)C5)ccn3)CC2)no1 [compound 292, (2S,4R)-N-((S)-1-(4-(1H-1,2,3-triazol-1-yl)phenyl)ethyl)-1-((2S)-2-(3-(2-(4-(2-((4-(3-(3-amino-6-(2-hydroxyphenyl)pyridazin-4-yl)-3,8-diazabicyclo[3.2.1]octan-8-yl)pyridin-2-yl)oxy)ethyl)piperazin-1-yl)ethoxy)isoxazol-5-yl)-3-methylbutanoyl)-4-hydroxypyrrolidine-2-carboxamide] | > 30 | 
